# Test system: 661W cells expressing CNG channels with the F525N mutation
# Test: LIVE/DEAD Viability/Cytotoxicity Kit staining, cells expressing F525N
# Type: cell-based, mouse
# Conditions: 0.1 µM CPT-cGMP, 24 h; compared to WT-expressing or untreated F525N-expressing cells
# Protocol: The viability of 661W cells transfected with WT or mutant CNG channels was also assessed using the LIVE⁄DEAD® Viability⁄Cytotoxicity Kit (Life Technologies) according to the manufacturer’s protocol. Briefly, cells were transfected under the conditions described above and plated into 4-well multi-chamber Lab-Tek glass slides (Nalge Nunc International, Rochester, NY). At the end of cyclic nucleotide treatment, cells were washed with PBS three times and stained with 2 μM calcein AM and 4 μM ethidium homodimer-1 solution at room temperature for 30 min. Fluorescence microscopy was then performed to visualize the live and dead cells. Imaging of cells was performed at the Washington State University Franceschi Microscopy and Imaging Center. Images were obtained using a 10× objective on an Axiovert 200M inverted microscope equipped with a Zeiss LSM 510 confocal laser-scanning system and a krypton-argon laser. Fluorescence was measured using an excitation wavelength of 488 nm, and a 522 DF 32 emission filter for green fluorescence and 635 DF 32 emission filter for red fluorescence.
structure (smiles),measurement,value
"Nc1nc2c(nc(Sc3ccc(Cl)cc3)n2[C@@H]2O[C@@H]3COP(=O)(O)O[C@H]3[C@H]2O)c(=O)[nH]1 [CPT-cGMP, 8-(4-chlorophenylthio) guanosine 3′,5′-cyclic monophosphate]",damaged/dead and intact/viable cells (calcein AM / ethidium homodimer-1 fluorescence),more damaged/dead cells (red fluorescence) and less intact/viable cells

# — PMC3692405, “Disease-associated mutations in CNGB3 promote cytotoxicity in photoreceptor-derived cells” (Molecular Vision, 2013)
